Laboratory results from patent publication US10730872B2, “Pesticidally active heterocyclic derivatives with sulphur containing sustitutents” (SYNGENTA PARTICIPATIONS AG, priority 2015, dated 2020).

Experiments:
Format in all cases: in vivo
[1] = test system: Diabrotica balteata; assay: Diabrotica balteata (Corn Root Worm); conditions: 96 h, application rate of 200 ppm, sprayed maize sprouts, L2 larvae, 4 days after infestation, read-out: effect in at least one of the two categories (mortality or growth inhibition)
Experimental: Maize sprouts placed onto an agar layer in 24-well microtiter plates were treated with aqueous test solutions prepared from 10,000 ppm DMSO stock solutions by spraying. After drying, the plates were infested with L2 larvae (6 to 10 per well). The samples were assessed for mortality and growth inhibition in comparison to untreated samples 4 days after infestation.

[2] = test system: Aedes aegypti; assay: Aedes Aegypti (Yellow Fever Mosquito); conditions: 200 ppm in ethanol, dry deposit in 12 well plates, adult females, after 48 h and/or 24 h
Experimental: Test solutions, at an application rate of 200 ppm in ethanol, were applied to 12 well tissue culture plates. Once the deposits were dry, five, two to five day old adult female Aedes aegypti were added to each well, and sustained with a 10% sucrose solution in a cotton wool plug. Assessment of knockdown was made one hour after introduction, and mortality was assessed at 24 and 48 hours after introduction.

[3] = test system: Spodoptera littoralis; assay: Spodoptera littoralis (Egyptian Cotton Leaf Worm), sprayed cotton leaf discs; conditions: foliar, 72 h, application rate of 200 ppm, L1 larvae, 3 days after infestation
Outline: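 Cotton leaf discs on agar sprayed with aqueous dilutions of 10,000 ppm DMSO stocks, dried, then infested with five L1 larvae. Mortality, anti-feeding and growth inhibition scored against untreated discs 3 days after infestation. Control recorded when any one category exceeds the untreated sample.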

[4] = test system: Myzus persicae; assay: Myzus persicae (Green Peach Aphid). Systemic Activity; conditions: 144 h, test rate of 24 ppm, roots of infested pea seedlings in test solution, 6 days
Experimental: Roots of pea seedlings infested with an aphid population of mixed ages were placed directly into aqueous test solutions prepared from 10,000 DMSO stock solutions. The samples were assessed for mortality 6 days after placing seedlings into test solutions.

[5] = test system: Spodoptera littoralis; assay: Spodoptera littoralis (Egyptian Cotton Leaf Worm), uptake by lettuce roots from agar; conditions: 144 h, test rate of 12.5 ppm, mixed with agar, absorbed by lettuce roots, Spodoptera eggs, 6 days after infestation, read-out: effect in at least one of the three categories (mortality, anti-feeding, or growth inhibition)
Outline: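 Compound from 10,000 ppm DMSO stock mixed into agar; lettuce seeds grew 7 days, taking compound up via roots into the lid plate. Cut leaves infested with Spodoptera eggs; mortality, anti-feedant effect and growth inhibition scored against untreated samples 6 days after infestation.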

[6] = test system: Tetranychus urticae; assay: Tetranychus urticae (Two-Spotted Spider Mite): Feeding/Contact Activity; conditions: foliar, 192 h, application rate of 200 ppm, sprayed bean leaf discs, mixed population (mobile stages), 8 days after infestation
Experimental: Bean leaf discs on agar in 24-well microtiter plates were sprayed with aqueous test solutions prepared from 10,000 ppm DMSO stock solutions. After drying the leaf discs were infested with a mite population of mixed ages. The samples were assessed for mortality on mixed population (mobile stages) 8 days after infestation.

[7] = test system: Euschistus heros; assay: Euschistus heros (Neotropical Brown Stink Bug); conditions: 120 h, application rate of 200 ppm, sprayed soybean leaves, N2 nymphs, 5 days after infestation, read-out: effect in at least one of the two categories (mortality or growth inhibition)
Experimental: Soybean leaves on agar in 24-well microtiter plates were sprayed with aqueous test solutions prepared from 10,000 ppm DMSO stock solutions. After drying the leaves were infested with N2 nymphs. The samples were assessed for mortality and growth inhibition in comparison to untreated samples 5 days after infestation.

[8] = test system: Plutella xylostella; assay: Plutella xylostella (Diamond Back Moth); conditions: 120 h, application rate of 200 ppm, artificial diet, L2 larvae, 5 days after infestation, read-out: effect in at least one of the two categories (mortality or growth inhibition)
Experimental: 24-well microtiter plates with artificial diet were treated with aqueous test solutions prepared from 10,000 ppm DMSO stock solutions by pipetting. After drying, the plates were infested with L2 larvae (10 to 15 per well). The samples were assessed for mortality and growth inhibition in comparison to untreated samples 5 days after infestation.

[9] = test system: Myzus persicae; assay: Myzus persicae (Green Peach Aphid): Feeding/Contact Activity; conditions: foliar, 144 h, application rate of 200 ppm, sprayed sunflower leaf discs, aphid population of mixed ages, 6 days after infestation
Experimental: Sunflower leaf discs were placed onto agar in a 24-well microtiter plate and sprayed with aqueous test solutions prepared from 10,000 ppm DMSO stock solutions. After drying, the leaf discs were infested with an aphid population of mixed ages. The samples were assessed for mortality 6 days after infestation.

[10] = test system: Bemisia tabaci; assay: Bemisia tabaci (Cotton White Fly): Feeding/Contact Activity; conditions: foliar, 144 h, application rate of 200 ppm, sprayed cotton leaf discs, adult white flies, 6 days after incubation
Experimental: Cotton leaf discs were placed on agar in 24-well microtiter plates and sprayed with aqueous test solutions prepared from 10,000 ppm DMSO stock solutions. After drying the leaf discs were infested with adult white flies. The samples were checked for mortality 6 days after incubation.

[11] = test system: Frankliniella occidentalis; assay: Frankliniella occidentalis (Western Flower Thrips): Feeding/Contact Activity; conditions: foliar, 168 h, application rate of 200 ppm, sprayed sunflower leaf discs, population of mixed ages, 7 days after infestation
Experimental: Sunflower leaf discs were placed on agar in 24-well microtiter plates and sprayed with aqueous test solutions prepared from 10,000 DMSO stock solutions. After drying the leaf discs were infested with a Frankliniella population of mixed ages. The samples were assessed for mortality 7 days after infestation.

CCS(=O)(=O)c1ccc(NC2CC2)nc1-c1nc2cc(C(F)(F)F)n(C)c(=O)c2n1C [Compound A2, 2-[6-(cyclopropylamino)-3-ethylsulfonyl-2-pyridyl]-3,5-dimethyl-6-(trifluoromethyl)imidazo[4,5-c]pyridin-4-one]
≥ 80%: effect mortality or growth inhibition at 200 ppm [1] | pest or weed control at 200 ppm [2] | percent control (mortality, anti-feeding effect or growth inhibition) at 200 ppm [3] | mortality at 24 ppm [4] | percent effect (mortality, anti-feeding or growth inhibition) at 12.5 ppm [5] | mortality at 200 ppm [6] | percent effect (mortality or growth inhibition) at 200 ppm [7] | percent effect (mortality or growth inhibition) at 200 ppm [8] | mortality at 200 ppm [9]

CCn1c(C(F)(F)F)cc2nc(-c3nc(N)ccc3S(=O)(=O)CC)n(C)c2c1=O [Compound A6, 2-(6-amino-3-ethylsulfonyl-2-pyridyl)-5-ethyl-3-methyl-6-(trifluoromethyl)imidazo[4,5-c]pyridin-4-one]
≥ 80%: effect mortality or growth inhibition at 200 ppm [1] | pest or weed control at 200 ppm [2] | percent control (mortality, anti-feeding effect or growth inhibition) at 200 ppm [3] | mortality at 24 ppm [4] | percent effect (mortality, anti-feeding or growth inhibition) at 12.5 ppm [5] | percent effect (mortality or growth inhibition) at 200 ppm [7] | mortality at 200 ppm [10] | percent effect (mortality or growth inhibition) at 200 ppm [8] | mortality at 200 ppm [9]

CCn1c(C(F)(F)F)cc2nc(-c3nc(NC(=O)C4CC4)ccc3S(=O)(=O)CC)n(C)c2c1=O [Compound A8, N-[6-[5-ethyl-3-methyl-4-oxo-6-(trifluoromethyl)imidazo[4,5-c]pyridin-2-yl]-5-ethylsulfonyl-2-pyridyl]cyclopropanecarboxamide]
≥ 80%: effect mortality or growth inhibition at 200 ppm [1] | percent control (mortality, anti-feeding effect or growth inhibition) at 200 ppm [3] | percent effect (mortality, anti-feeding or growth inhibition) at 12.5 ppm [5] | percent effect (mortality or growth inhibition) at 200 ppm [7] | mortality at 200 ppm [10] | percent effect (mortality or growth inhibition) at 200 ppm [8] | mortality at 200 ppm [11] | mortality at 200 ppm [9]

CCn1c(C(F)(F)F)cc2nc(-c3nc(N(C)C(=O)C4CC4)ccc3S(=O)(=O)CC)n(C)c2c1=O [Compound A10, N-[6-[5-ethyl-3-methyl-4-oxo-6-(trifluoromethyl)imidazo[4,5-c]pyridin-2-yl]-5-ethylsulfonyl-2-pyridyl]-N-methyl-cyclopropanecarboxamide]
≥ 80%: effect mortality or growth inhibition at 200 ppm [1] | percent control (mortality, anti-feeding effect or growth inhibition) at 200 ppm [3] | mortality at 24 ppm [4] | percent effect (mortality, anti-feeding or growth inhibition) at 12.5 ppm [5] | percent effect (mortality or growth inhibition) at 200 ppm [7] | mortality at 200 ppm [10] | percent effect (mortality or growth inhibition) at 200 ppm [8] | mortality at 200 ppm [11] | mortality at 200 ppm [9]

CCn1c(C(F)(F)F)cc2nc(-c3ncc(N(C)C4CC4)cc3S(=O)(=O)CC)n(C)c2c1=O [Compound A11, 2-[5-[cyclopropyl(methyl)amino]-3-ethylsulfonyl-2-pyridyl]-5-ethyl-3-methyl-6-(trifluoromethyl)imidazo[4,5-c]pyridin-4-one]
≥ 80%: effect mortality or growth inhibition at 200 ppm [1] | pest or weed control at 200 ppm [2] | percent control (mortality, anti-feeding effect or growth inhibition) at 200 ppm [3] | percent effect (mortality, anti-feeding or growth inhibition) at 12.5 ppm [5] | percent effect (mortality or growth inhibition) at 200 ppm [7] | percent effect (mortality or growth inhibition) at 200 ppm [8] | mortality at 200 ppm [11] | mortality at 200 ppm [9]

CCn1c(C(F)(F)F)cc2nc(-c3nc(NC4CC4)ccc3S(=O)(=O)CC)n(C)c2c1=O [Compound A30, 2-[6-(cyclopropylamino)-3-ethylsulfonyl-2-pyridyl]-5-ethyl-3-methyl-6-(trifluoromethyl)imidazo[4,5-c]pyridin-4-one]
≥ 80%: effect mortality or growth inhibition at 200 ppm [1] | pest or weed control at 200 ppm [2] | percent control (mortality, anti-feeding effect or growth inhibition) at 200 ppm [3] | mortality at 24 ppm [4] | mortality at 200 ppm [6] | percent effect (mortality or growth inhibition) at 200 ppm [7] | mortality at 200 ppm [10] | percent effect (mortality or growth inhibition) at 200 ppm [8] | mortality at 200 ppm [9]

CCS(=O)(=O)c1cc(Cl)c(N)nc1-c1nc2cc(C(F)(F)F)n(C3CC3)c(=O)c2n1C [Compound A43, 2-(6-amino-5-chloro-3-ethylsulfonyl-2-pyridyl)-5-cyclopropyl-3-methyl-6-(trifluoromethyl)imidazo[4,5-c]pyridin-4-one]
≥ 80%: effect mortality or growth inhibition at 200 ppm [1] | percent control (mortality, anti-feeding effect or growth inhibition) at 200 ppm [3] | mortality at 24 ppm [4] | percent effect (mortality, anti-feeding or growth inhibition) at 12.5 ppm [5] | percent effect (mortality or growth inhibition) at 200 ppm [7] | mortality at 200 ppm [10] | percent effect (mortality or growth inhibition) at 200 ppm [8] | mortality at 200 ppm [11] | mortality at 200 ppm [9]

CCS(=O)(=O)c1cc(C2CC2)c(N)nc1-c1nc2cc(C(F)(F)F)n(C3CC3)c(=O)c2n1C [Compound A48, 2-(6-amino-5-cyclopropyl-3-ethylsulfonyl-2-pyridyl)-5-cyclopropyl-3-methyl-6-(trifluoromethyl)imidazo[4,5-c]pyridin-4-one]
≥ 80%: effect mortality or growth inhibition at 200 ppm [1] | percent control (mortality, anti-feeding effect or growth inhibition) at 200 ppm [3] | mortality at 24 ppm [4] | mortality at 200 ppm [6] | percent effect (mortality or growth inhibition) at 200 ppm [7] | mortality at 200 ppm [10] | percent effect (mortality or growth inhibition) at 200 ppm [8] | mortality at 200 ppm [11] | mortality at 200 ppm [9]

CCS(=O)(=O)c1cc(C#N)c(N)nc1-c1nc2cc(C(F)(F)F)n(C3CC3)c(=O)c2n1C [Compound A50, 2-(6-amino-5-cyano-3-ethylsulfonyl-2-pyridyl)-5-cyclopropyl-3-methyl-6-(trifluoromethyl)imidazo[4,5-c]pyridin-4-one]
≥ 80%: effect mortality or growth inhibition at 200 ppm [1] | percent control (mortality, anti-feeding effect or growth inhibition) at 200 ppm [3] | mortality at 24 ppm [4] | percent effect (mortality, anti-feeding or growth inhibition) at 12.5 ppm [5] | percent effect (mortality or growth inhibition) at 200 ppm [7] | percent effect (mortality or growth inhibition) at 200 ppm [8] | mortality at 200 ppm [11] | mortality at 200 ppm [9]
